Experimental data reported in the Deep4Chem optical property database.

Test: solvent given as SMILES
[1] = in O=P(c1ccccc1)(c1ccccc1)c1ccc2oc3ccc(P(=O)(c4ccccc4)c4ccccc4)cc3c2c1

O=C1CCCc2c1[nH]c1cc3c(cc21)OCO3
fluorescence lifetime (in C1CCOC1): 0.442 ns
fluorescence lifetime (in C1COCCO1): 0.481 ns
fluorescence lifetime (in CC#N): 0.978 ns
fluorescence lifetime (in CCCCCCCCCCCCO): 1.36 ns
fluorescence lifetime (in CCCCCCCCCCO): 1.28 ns
fluorescence lifetime (in CCCCCCCCO): 1.25 ns
fluorescence lifetime (in CCCCCCO): 1.22 ns
fluorescence lifetime (in CCCCO): 1.12 ns
fluorescence lifetime (in CCO): 1.36 ns
fluorescence lifetime (in CCOC(C)=O): 0.476 ns
fluorescence lifetime (in CN(C)C=O): 0.838 ns
fluorescence lifetime (in CO): 1.78 ns
fluorescence lifetime (in CS(C)=O): 1.43 ns
fluorescence lifetime (in O): 2.29 ns
fluorescence lifetime (in c1ccccc1): 0.466 ns

Cc1ccc(C2=Cc3c4ccccc4cc[n+]3[B-](F)(F)O2)cc1
fluorescence lifetime (in ClC(Cl)Cl): 0.377 ns

Cc1ccc2nc3c(nc2c1)c(-c1ccccc1)nn3C
fluorescence lifetime (in C1CCCCC1): 9.32 ns
fluorescence lifetime (in C1CCOC1): 23.6 ns
fluorescence lifetime (in CC#N): 19.8 ns

O=C(O)CCCCCn1c2ccccc2c(=O)c2ccccc21
fluorescence lifetime (in O): 14.2 ns

c1cnc2c(c1)c1nc(-c3ccc(-c4nc5c6cccnc6c6ncccc6c5[nH]4)cc3)[nH]c1c1cccnc12
fluorescence lifetime (in CS(C)=O): 1.36 ns

CCN(CC)c1ccc2cc(C#N)/c(=N\C(C)=O)oc2c1
fluorescence lifetime (in CCO): 1.8 ns
fluorescence lifetime (in ClCCl): 4 ns

Cc1ccccc1-c1cc(-c2ccc(N3c4ccccc4C(C)(C)c4ccccc43)cc2)nc(-c2ccccc2)n1
fluorescence lifetime (in Cc1ccccc1): 2.76 ns
fluorescence lifetime (in ClCCl): 22.7 ns

COc1ccc(/C=C/C2=C3CCc4ccccc4C3=[O+][B-](F)(F)O2)cc1
fluorescence lifetime (in ClCCl): 0.24 ns

CCCCCCC1(CCCCCC)c2ccccc2-c2ccc(-c3ccc(-c4cc(-c5ccccn5)nc(-c5ccccn5)c4)cc3)cc21
fluorescence lifetime (in ClCCl): 0.77 ns

C[Si](C)(C)c1ccc2ccc3c([Si](C)(C)C)ccc4ccc1c2c43
fluorescence lifetime (in CCCCCC): 53.7 ns
fluorescence lifetime (in CO): 71.8 ns
fluorescence lifetime (in ClCCl): 65.5 ns

Cc1cccc2c3ccccc3n(-c3ccc(-c4c(-c5ccccc5)c(C#N)c(C#N)c(-c5ccccc5)c4-c4ccc(-n5c6ccccc6c6cccc(C)c65)cc4)cc3)c12
fluorescence lifetime [1]: 41 ns

O=Cc1ccc(C#CC(C#Cc2ccc(C=O)o2)=Cc2ccc(C=C(C#Cc3ccc(C=O)o3)C#Cc3ccc(C=O)o3)s2)o1
fluorescence lifetime (in ClC(Cl)Cl): 0.4 ns

CCC12C(=C3C(=C4c5ccc(-c6ccc(C(C)=O)cc6)cc5S(=O)(=O)C41CC)C(F)(F)C(F)(F)C3(F)F)c1ccc(-c3ccc(C(C)=O)cc3)cc1S2(=O)=O (stereo not drawn)
fluorescence lifetime (in C1COCCO1): 2.8 ns

CCOc1cccc(-c2nc3c(c4c2-c2ccccc2CC4)-c2ccccc2CC3)c1O
fluorescence lifetime (in ClCCl): 0.65 ns

CCCCCCCCCCCCN1C(=O)c2c(c3ccc4cc(-c5ccc(C)cc5)c(OC)cc4c3c3c2ccc2cc(-c4ccc(C)cc4)c(OC)cc23)C1=O
fluorescence lifetime (in ClCCl): 6.2 ns

F[B-]1(F)n2c(c3ccccc3c2-c2ccccc2)C(c2ccccc2)=C2c3ccccc3C(c3ccccc3)=[N+]21
fluorescence lifetime (in ClCCl): 5.2 ns

C(=C\c1cccc2ccccc12)/c1ccc(-c2nnc(-c3ccc(-c4cc5ccccc5s4)cc3)o2)cc1
fluorescence lifetime (in Cc1ccccc1): 0.97 ns
fluorescence lifetime (in ClC(Cl)Cl): 1.15 ns

N#C/C(=C(/C#N)c1ccc(-c2ccncc2)cc1)c1ccc(-c2ccncc2)cc1
fluorescence lifetime (in ClCCl): 0.1 ns

O=C1c2ccc3c4ccc5c6c(ccc(c7ccc(c2c37)C(=O)N1c1ccncc1)c64)C(=O)N(c1ccncc1)C5=O
fluorescence lifetime (in C1CCOC1): 1.92 ns
fluorescence lifetime (in C1COCCO1): 3.27 ns
fluorescence lifetime (in CC(C)=O): 2.9 ns
fluorescence lifetime (in CC(C)O): 1.74 ns
fluorescence lifetime (in CCCCO): 1.85 ns
fluorescence lifetime (in CCO): 0.77 ns
fluorescence lifetime (in CCOC(C)=O): 1.34 ns
fluorescence lifetime (in CN(C)C=O): 1.69 ns
fluorescence lifetime (in CO): 0.79 ns
fluorescence lifetime (in CS(C)=O): 0.22 ns
fluorescence lifetime (in ClC(Cl)(Cl)Cl): 3.75 ns
fluorescence lifetime (in ClC(Cl)Cl): 3.74 ns

Cc1ccc2c(c1)C1(c3ccccc3-c3ccccc31)c1cc(C)ccc1N2c1ccc(-c2ncccn2)cc1
fluorescence lifetime [1]: 13 ns

COc1c2ccccc2c(OC)c2c1c1ccc(C)cc1n2C
fluorescence lifetime (in C1CCCCC1): 20.6 ns
fluorescence lifetime (in CC#N): 25.8 ns
fluorescence lifetime (in CO): 22.9 ns
fluorescence lifetime (in ClCCl): 22 ns

Cc1ccc(-c2cnc3nn4ccccc4c3c2)cc1
fluorescence lifetime (in C1CCOC1): 4.6 ns

CCN(CC)c1ccc(-c2nc3c4ccccc4n(C)c3nc2-c2ccc(B(c3c(C)cc(C)cc3C)c3c(C)cc(C)cc3C)cc2)cc1
fluorescence lifetime (in C1CCOC1): 9.21 ns
